Laboratory results published in PMC2605960 (Biochemical Journal, 2008).
Changes are numbered by the printed parent chain. Blank lines part the entries; values can stand above or below the compound they belong to.

How the values were obtained:
[1] = biological target: T1, FLAG-α1b-adrenoceptor-eYFP (Mesocricetus auratus, UniProt P18841); type: binding
T1 sequence (P18841 1-515): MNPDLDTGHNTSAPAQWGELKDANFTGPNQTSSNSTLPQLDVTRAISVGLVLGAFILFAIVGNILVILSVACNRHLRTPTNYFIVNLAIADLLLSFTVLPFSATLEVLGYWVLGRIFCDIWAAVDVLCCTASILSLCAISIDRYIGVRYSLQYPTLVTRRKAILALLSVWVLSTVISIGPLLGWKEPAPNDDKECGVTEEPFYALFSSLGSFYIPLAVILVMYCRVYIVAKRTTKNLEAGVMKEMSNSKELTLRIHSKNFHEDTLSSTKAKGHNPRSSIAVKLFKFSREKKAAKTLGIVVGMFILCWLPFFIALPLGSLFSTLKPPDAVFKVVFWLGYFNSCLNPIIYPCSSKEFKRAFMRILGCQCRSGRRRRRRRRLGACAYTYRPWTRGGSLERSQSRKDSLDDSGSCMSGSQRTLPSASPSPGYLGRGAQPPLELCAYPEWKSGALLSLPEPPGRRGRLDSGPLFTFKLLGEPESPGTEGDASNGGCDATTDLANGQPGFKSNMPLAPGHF

[2] = biological target: T2, FLAG-α1b-adrenoceptor TMI-TMIV-eYFP (Mesocricetus auratus, UniProt P18841, L166A/L167A/L65A/V66A); conditions: pKi, [3H]prazosin competition binding
T2 sequence (P18841 1-515 L65A/V66A/L166A/L167A): T1 sequence (P18841 1-515) with L65A, V66A, L166A, L167A

[3] = biological target: T2, FLAG-α1b-adrenoceptor TMI-TMIV-eYFP; assay: Intact cell anti-FLAG ELISA of cell surface receptor; type: cell-based; conditions: for cell surface delivery of mutant receptor (anti-FLAG ELISA): 10^−5 M of each drug
[4] = biological target: T3, FLAG-α1b-adrenoceptor TMI-TMIV (Mesocricetus auratus, UniProt P18841, L166A/L167A/L65A/V66A); assay: Sequential 3-colour FRET imaging; type: cell-based; conditions: 10^−7 M, 12 h; transiently transfected HEK-293 cells
T3 sequence (P18841 1-515 L65A/V66A/L166A/L167A) 1: T1 sequence (P18841 1-515) with L65A, V66A, L166A, L167A
T3 sequence (P18841 1-515 L65A/V66A/L166A/L167A) 2: T1 sequence (P18841 1-515) with L65A, V66A, L166A, L167A
T3 sequence (P18841 1-515 L65A/V66A/L166A/L167A) 3: T1 sequence (P18841 1-515) with L65A, V66A, L166A, L167A

[5] = biological target: T2, FLAG-α1b-adrenoceptor TMI-TMIV-eYFP; type: cell-based; conditions: pre-treated with 10^−7 M overnight, then extensively washed; 0.4 nM [3H]prazosin

Ki [1]: 501 nM
Ki [2]: 63.1 nM
SMILES: CNC[C@H](O)c1ccc(O)c(O)c1 [adrenaline]

cell surface delivery of mutant receptor (anti-FLAG ELISA) ([3]; overnight treatment): significant cell surface delivery
SMILES: O=C(c1ccc(F)cc1)C1CCN(CCn2c(=O)[nH]c3ccccc3c2=O)CC1 [ketanserin]

sequential FRET signal (eCFP to dsRed2 FRET) [4]: increased
cell surface delivery of mutant receptor (anti-FLAG ELISA) ([3]; overnight treatment): most effective ligand tested
concentration of maximum effect on cell surface mutant receptor ([3]; overnight treatment): 10^−7 M
incubation time for maximum effect on cell surface mutant receptor ([3]; results not shown): 14 to 16 h
SMILES: COc1cc2nc(N3CCN(C(=O)c4ccco4)CC3)nc(N)c2cc1OC [prazosin]
cell surface mutant receptor by intact cell [3H]prazosin binding [5]: marked increases of cell surface FLAG-α1b-adrenoceptor TMI-TMIV-eYFP

SMILES: Cc1nc2sccn2c(=O)c1CCN1CCC(=C(c2ccc(F)cc2)c2ccc(F)cc2)CC1 [ritanserin]
cell surface delivery of mutant receptor (anti-FLAG ELISA) ([3]; overnight treatment): only ketanserin caused significant cell surface delivery
